Results on eight compounds are retold here after publication PMC3285443 (European Journal of Pharmaceutical Sciences, 2010).

In brackets after ≈: the same amount, converted by molar mass. Read-outs that look alike come from different tables or passages of the source.

In series [1] the target is T1, recombinant human soluble epoxide hydrolase (Homo sapiens, UniProt P34913).
T1 sequence (P34913 1-555): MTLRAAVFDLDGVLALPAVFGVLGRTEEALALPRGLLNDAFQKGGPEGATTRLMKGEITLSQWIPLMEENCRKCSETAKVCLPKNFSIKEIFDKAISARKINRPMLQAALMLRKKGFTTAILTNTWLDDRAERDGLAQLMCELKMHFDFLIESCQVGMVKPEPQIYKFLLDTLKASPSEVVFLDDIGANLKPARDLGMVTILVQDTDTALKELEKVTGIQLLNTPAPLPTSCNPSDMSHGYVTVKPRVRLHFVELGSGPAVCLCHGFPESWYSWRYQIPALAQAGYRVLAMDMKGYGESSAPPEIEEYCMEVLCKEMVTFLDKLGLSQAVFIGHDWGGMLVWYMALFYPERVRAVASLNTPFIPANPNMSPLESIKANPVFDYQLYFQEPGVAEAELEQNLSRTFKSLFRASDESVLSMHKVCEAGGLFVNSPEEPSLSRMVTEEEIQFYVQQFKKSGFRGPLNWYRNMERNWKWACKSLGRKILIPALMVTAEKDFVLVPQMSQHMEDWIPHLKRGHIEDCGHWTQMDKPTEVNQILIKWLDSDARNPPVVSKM
Kind of series: fluorescent assay with CMNPC substrate, recombinant human sEH. In kind it is biochemical.

Another series has as its target T2, recombinant murine sEH (Mus musculus, UniProt P34914).
T2 sequence (P34914 1-554): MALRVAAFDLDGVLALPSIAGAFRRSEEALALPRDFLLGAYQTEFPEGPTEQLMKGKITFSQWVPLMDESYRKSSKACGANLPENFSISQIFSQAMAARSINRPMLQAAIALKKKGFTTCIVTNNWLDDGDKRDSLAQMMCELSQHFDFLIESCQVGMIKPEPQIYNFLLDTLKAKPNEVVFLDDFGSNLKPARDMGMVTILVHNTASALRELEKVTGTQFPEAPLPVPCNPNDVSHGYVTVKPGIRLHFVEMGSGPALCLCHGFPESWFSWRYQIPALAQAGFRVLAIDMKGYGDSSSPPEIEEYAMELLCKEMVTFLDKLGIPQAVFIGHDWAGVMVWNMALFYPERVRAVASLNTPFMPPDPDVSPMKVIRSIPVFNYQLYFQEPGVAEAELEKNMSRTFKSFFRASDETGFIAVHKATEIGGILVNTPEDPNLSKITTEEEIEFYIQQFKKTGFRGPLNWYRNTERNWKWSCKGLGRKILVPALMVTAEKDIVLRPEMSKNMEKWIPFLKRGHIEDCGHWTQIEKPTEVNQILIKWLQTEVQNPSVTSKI
The series is described as follows: fluorescent assay with CMNPC substrate, recombinant mouse sEH. In kind it is biochemical.

In a further series the target is T3, recombinant rat sEH (Rattus norvegicus, UniProt P80299).
T3 sequence (P80299 1-554): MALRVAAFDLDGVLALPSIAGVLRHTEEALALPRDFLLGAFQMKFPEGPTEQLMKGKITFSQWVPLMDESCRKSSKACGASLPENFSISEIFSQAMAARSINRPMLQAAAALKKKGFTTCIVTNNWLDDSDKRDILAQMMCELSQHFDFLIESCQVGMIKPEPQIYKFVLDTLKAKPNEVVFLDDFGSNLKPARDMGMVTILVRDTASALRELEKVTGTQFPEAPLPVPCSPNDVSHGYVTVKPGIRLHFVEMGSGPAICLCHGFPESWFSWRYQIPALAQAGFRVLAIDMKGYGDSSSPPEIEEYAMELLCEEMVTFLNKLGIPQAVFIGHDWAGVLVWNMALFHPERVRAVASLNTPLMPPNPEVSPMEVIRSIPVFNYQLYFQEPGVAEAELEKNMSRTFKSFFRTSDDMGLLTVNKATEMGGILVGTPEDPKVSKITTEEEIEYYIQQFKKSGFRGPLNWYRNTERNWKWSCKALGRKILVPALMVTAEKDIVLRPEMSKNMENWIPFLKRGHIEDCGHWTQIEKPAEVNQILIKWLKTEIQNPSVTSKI
The series is described as follows: fluorescent assay with CMNPC substrate, recombinant rat sEH. The series is classed as biochemical.

The target of the next series is T4, human recombinant sEH (Homo sapiens, UniProt P34913).
T4 sequence (P34913 1-555): T1 sequence (P34913 1-555)
Kind of series: radioactive t-DPPO assay, purified recombinant human sEH. In kind it is biochemical.

Series [2] has as its target T5, purified human recombinant sEH (Homo sapiens, UniProt P34913).
T5 sequence (P34913 1-555): T1 sequence (P34913 1-555)
The series is classed as biochemical.

Series [3] deals with human sEH (human liver cytosol) (Homo sapiens, UniProt P34913). The series is described as follows: LC/MS assay with 14,15-EET substrate, human liver cytosol. The series is classed as biochemical.
The nature of series [4]: experimental LogP determination. The note with it: for logP at 24 h: 1-octanol / 0.1 M sodium phosphate buffer, pH 7.4.
The nature of series [5]: cassette-dosing oral pharmacokinetic screening in dogs. The note with it: dog; for AUC / half-life: female, Labrador retriever, plasma, po, 0.3 mg/kg; for C24/IC50 (ratio of blood concentration over the IC50 with recombinant human sEH after 24 hour): n=1.
Series [6] is described as follows: water solubility determination. Conditions: 0.1 M sodium phosphate buffer (pH 7.4), 25°C, 24 hours.
Series [7] in a line: compartmental pharmacokinetics after i.v. administration in dogs. The note with it: female, Labrador retriever, dog, plasma, iv.
Series [8] is described as follows: compartmental pharmacokinetics after oral gavage. Conditions: female, Labrador retriever, dog, plasma, 0.3 mg/kg.
A short description of series [9]: in vivo. Conditions: female, Labrador retriever, dog, iv.
A short description of series [10]: in vivo. The note with it: female, Labrador retriever, dog, po, 0.3 mg/kg.
The nature of another series: physchem. Conditions: 25 °C, pH 7.4, aqueous buffer, thermodynamic from solid.

Broadly, the IC50 is the concentration at which inhibition is half-maximal. Broadly, the logP is the decadic logarithm of the partition coefficient of the neutral form, usually between octanol and water. A lower logP goes with a more hydrophilic compound. As a reminder, the AUC is concentration integrated over time. The term half-life denotes how long it takes for the measured level to halve. Take `CS(=O)(=O)N1CCC(NC(=O)Nc2ccc(OC(F)(F)F)cc2)CC1` [compound 27, 1-(1-methylsulfonyl-piperidin-4-yl)-3-(4-trifluoromethoxy-phenyl)-urea]: the IC50 in series [1] (IC50, CMNPC, Human, purified recombinant enzyme at […]) was determined as 3 nM; on recombinant murine sEH it was 5 nM; at recombinant rat sEH, 9 nM; at human recombinant sEH it was 26 nM; in series [2] (IC50 on human sEH in buffer, buffer), 150 nM; in [2] (IC50 on human sEH incubated in sEH depleted canine liver cytosol, sEH depleted canine liver cytosol supplemented with purified human recombinant sEH) it was 120 nM. The compound also had a concentration for half-maximal inhibition (IC50) in series [3] of 26 nM. Besides, in [4], the logP at 24 h was 1.9. For the same compound, the exposure (AUC) in series [5] was 28.3 µM·h. Besides, the half-life in series [5] is greater than 24 h.

`CC(=O)N1CCC(NC(=O)Nc2ccc(OC(F)(F)F)cc2)CC1` [compound 24] gave a Water solubility in series [6] of 51 µg/mL. Also, the “LogP (pH 7.4)” value in [4] (octanol / 0.1 M sodium phosphate buffer at pH 7.4) amounted to 2.3. In addition, in series [5] (oral 0.3 mg/kg cassette dosing, n=1, non-compartmental), the “T1/2 (terminal half-life)” value is greater than 24 h.

`O=C(Nc1ccc(Cl)cc1)Nc1ccc(Cl)c(Cl)c1` [compound 74, triclocarban, reference compound]: the “C24/IC50 (ratio of blood concentration over the IC50 with recombinant human sEH after 24 hour)” value in [5] (oral 0.3 mg/kg cassette dosing) was less than 0.1. For the same compound, in [5], the area under the curve (AUC) is 0.03 µM·h and the half-life is 0.5 h.

In the case of `COC(=O)c1ccc(NC(=O)NC23CC4CC(CC(C4)C2)C3)cc1O` [compound 62, 4-(3-adamantane-1-yl-ureido)-2-hydroxyl-benzoic acid methyl ester], the concentration for half-maximal inhibition (IC50) in series [1] was found to be 3 nM; at recombinant murine sEH, 10 nM; at recombinant rat sEH, 8 nM; on human recombinant sEH it was 6 nM. Besides, the “C24/IC50 (ratio of blood concentration over the IC50 with recombinant human sEH after 24 hour)” value in series [5] (oral 0.3 mg/kg cassette dosing) is 0.7. In series [5], this compound gave an AUC of 0.21 µM·h.

For the compound `O=C(O)CCCCCCCCCCCNC(=O)NC12CC3CC(CC(C3)C1)C2` [compound 1, 12-(3-adamantane-1-yl-ureido)-dodecanoic acid], the log partition coefficient (logP) at 24 h in [4] was determined as 3.

By clearance is commonly meant the rate of elimination divided by the concentration. Read a high clearance as efficient removal. For orientation: Cmax means the maximum level reached in the sampled fluid or tissue. In general, Tmax refers to the time at which the peak concentration occurs. In turn, `CCOCCOCCOCCCCCNC(=O)NC12CC3CC(CC(C3)C1)C2` [compound 3, 1-adamantan-1-yl-3-{5-[2-(2-ethoxyethoxy)ethoxy]pentyl}urea] returned a log partition coefficient (logP) at 24 h in series [4] of 2.6. For the same compound, in [5], the AUC was 0.04 µM·h and the half-life is 1 h. For the same compound, in [7], the clearance is 96.7 mL/min/kg and the half-life is 9.6 ± 1.8 min. Besides, in series [8], the AUC is 0.03 µM·h, the concentration peaked (Cmax) at 20 ± 10 nM, the time of peak concentration (Tmax) came to 0.2 ± 0.1 h and the half-life was 1.7 ± 1 h.

For the compound `CC(=O)N1CCC(NC(=O)NC2CCCCCC2)CC1` [compound 31, 1-cycloheptyl-3-(1-acetylpiperidin-4-yl) urea], the IC50 worked out at 28 nM in [1] (IC50, CMNPC, Human); 12 nM at recombinant murine sEH; 7 nM on recombinant rat sEH; 300 nM on human recombinant sEH. Besides, the “C24/IC50 (ratio of blood concentration over the IC50 with recombinant human sEH after 24 hour)” value in series [5] (oral 0.3 mg/kg cassette dosing) came out at 1.0. For the same compound, the AUC in series [5] is 3.67 µM·h. The same compound had a half-life in series [5] of 5.2 h.

As a reminder, the solubility is the concentration that dissolves in the medium under given conditions. Low readings indicate a poorly soluble substance, high ones a readily soluble substance. In “in vivo [9]”, `CC(=O)N1CCC(NC(=O)NC23CC4CC(CC(C4)C2)C3)CC1` [compound 14, N-(1-acetylpiperidin-4-yl)-N’-(adamant-1-yl) urea] had a clearance of 40 mL/min/kg and a half-life of 0.6 ± 0.1 h. In addition, in the series “in vivo [10]”, the Cmax was 80 ± 30 nM, the Tmax stood at 1 ± 0.7 h and the half-life was 1.7 ± 0.4 h. The amount in solution in “physchem” (solubility at 24 h) came to 490 µg/mL (≈ 1530 µM).
